{"source": "ChEMBL document CHEMBL1141051", "about": "“Antiviral 6-amino-quinolones: molecular basis for potency and selectivity” (Bioorg Med Chem Lett, 2005)", "key": {"[1]": {"molecular_target": "Nucleic Acid", "experiment": "Effective concentration required for binding to mutant loopless TAR using electrophoretic mobility shift assays done at 25 degree C with pH 7.5", "assay_type": "nucleic-acid assay, Human immunodeficiency virus 1"}, "[2]": {"molecular_target": "T1, Protein Tat (Human immunodeficiency virus type 1 group M subtype B (isolate HXB2)(HIV-1)) (UniProt P04608)", "T1 sequence (whole entry)": "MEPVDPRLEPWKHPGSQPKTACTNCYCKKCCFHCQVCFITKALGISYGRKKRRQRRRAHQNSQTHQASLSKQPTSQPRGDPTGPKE", "experiment": "Binding constant (K) against Tat/TAR using 1:1 quinolone/Mg2+ complex done at 25 degree C with pH 7.5", "details": "Human immunodeficiency virus 1"}, "[3]": {"molecular_target": "Nucleic Acid", "experiment": "Effective concentration required for binding to tRNA using electrophoretic mobility shift assays done at 25 degree C with pH 7.5", "assay_type": "nucleic-acid assay, Human immunodeficiency virus 1"}, "[4]": {"molecular_target": "Nucleic Acid", "experiment": "Effective concentration required for binding to wild-type TAR using electrophoretic mobility shift assays done at 25 degree C with pH 7.5", "assay_type": "nucleic-acid assay, Human immunodeficiency virus 1"}, "[5]": {"molecular_target": "Nucleic Acid", "experiment": "Effective concentration required for binding to mutant double stranded TAR using electrophoretic mobility shift assays done at 25 degree C with pH 7.5", "assay_type": "nucleic-acid assay, Human immunodeficiency virus 1"}}, "data": [{"smiles": "Cn1cc(C(=O)O)c(=O)c2cc(N)c(N3CCN(c4ccccn4)CC3)cc21", "values": [{"measurement": "EC50", "setting": "[1]", "value": 320, "unit": "nM"}, {"measurement": "K", "setting": "[2]", "value": 6650, "unit": "M⁻¹"}, {"measurement": "EC50", "setting": "[3]", "value": "> 50000", "unit": "nM"}, {"measurement": "EC50", "setting": "[4]", "value": 210, "unit": "nM"}]}, {"smiles": "Nc1cc2c(=O)c(C(=O)O)cn(C3CC3)c2cc1N1CCN(c2cccc(C(F)(F)F)c2)CC1", "values": [{"measurement": "EC50", "setting": "[5]", "value": 50, "unit": "nM"}, {"measurement": "K", "setting": "[2]", "value": 13600, "unit": "M⁻¹"}, {"measurement": "EC50", "setting": "[3]", "value": 130, "unit": "nM"}, {"measurement": "EC50", "setting": "[4]", "value": 190, "unit": "nM"}]}, {"smiles": "O=C(O)c1cn(C2CC2)c2cc(N3CCNCC3)c(F)cc2c1=O", "values": [{"measurement": "K", "setting": "[2]", "value": 790, "unit": "M⁻¹"}]}]}
